What was measured:
[1] = biological target: T1, Human N-His6-IDE42-1019 (E. coli expressed) (Homo sapiens, UniProt P14735); assay: Fluorescence anisotropy high-throughput screening assay (displacement of probe FL-6b); type: binding; conditions: final compound concentration 20 μM (6bK control 1 μM); values without asterisk
T1 construct: Human N-His6-IDE42-1019 (E. coli expressed); made in house; host or cells: E. coli (Rosetta 2 (DE3) pLysS, plasmid pTrcHis-A)
T1 sequence (P14735 42-1019): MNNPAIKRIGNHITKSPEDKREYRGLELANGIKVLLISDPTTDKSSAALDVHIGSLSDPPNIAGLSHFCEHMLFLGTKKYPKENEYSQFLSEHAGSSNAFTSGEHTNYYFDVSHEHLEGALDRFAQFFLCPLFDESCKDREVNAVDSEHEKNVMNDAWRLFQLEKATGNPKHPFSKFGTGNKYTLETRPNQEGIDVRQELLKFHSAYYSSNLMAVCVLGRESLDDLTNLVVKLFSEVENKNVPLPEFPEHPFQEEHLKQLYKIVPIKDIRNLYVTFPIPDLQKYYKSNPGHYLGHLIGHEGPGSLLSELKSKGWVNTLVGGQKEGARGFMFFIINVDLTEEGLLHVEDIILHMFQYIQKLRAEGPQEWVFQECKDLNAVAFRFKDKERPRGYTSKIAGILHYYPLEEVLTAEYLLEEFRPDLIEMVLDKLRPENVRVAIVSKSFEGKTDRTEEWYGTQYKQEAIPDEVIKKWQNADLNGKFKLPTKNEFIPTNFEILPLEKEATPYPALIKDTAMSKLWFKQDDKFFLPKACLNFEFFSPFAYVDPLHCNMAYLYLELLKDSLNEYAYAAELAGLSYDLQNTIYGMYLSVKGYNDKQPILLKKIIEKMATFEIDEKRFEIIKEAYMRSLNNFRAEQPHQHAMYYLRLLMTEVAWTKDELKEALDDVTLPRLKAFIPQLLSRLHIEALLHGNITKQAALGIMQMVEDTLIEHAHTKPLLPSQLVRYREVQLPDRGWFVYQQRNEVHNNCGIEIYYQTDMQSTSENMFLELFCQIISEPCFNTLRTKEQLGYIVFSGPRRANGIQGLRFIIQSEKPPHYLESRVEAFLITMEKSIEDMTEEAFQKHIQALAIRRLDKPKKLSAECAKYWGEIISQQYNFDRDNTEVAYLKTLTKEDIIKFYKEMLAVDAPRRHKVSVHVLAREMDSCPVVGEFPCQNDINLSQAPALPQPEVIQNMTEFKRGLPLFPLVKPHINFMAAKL
In short: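 Compounds at 20 μM final were added to 0.5 μM enzyme with fluorescein-labelled macrocycle probe ([…]) in 50 mM Tris pH 8.0, 1 M NaCl, 25 °C. Anisotropy (ex 492/em 523 nm) was read after 30 min in duplicate. Z-scores were calculated against plate DMSO controls.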

[2] = biological target: T2, recombinant human IDE42-1019 (Homo sapiens, UniProt P14735); assay: Protease assay with fluorogenic peptide substrate Mca-[…](Dnp)-OH; type: biochemical; conditions: for IC50: fluorogenic peptide Mca-RPPGFSAFK(Dnp)-OH, apparent IC50 for compounds with submaximal inhibition, read-out: IC50 (μM) Proteolysis
T2 construct: recombinant human IDE42-1019 (R&D Systems); purchased R&D Systems
T2 sequence (P14735 42-1019): T1 sequence (P14735 42-1019)

| SMILES | Average Z-score (Fluorescence anisotropy) [1] | IC50 [2] | Emax ([2]; read-out: Imax (%) Proteolysis (inhibition maximum), fluorogenic peptide Mca-RPPGFSAFK(Dnp)-OH, plateau at high inhibitor concentration) |
| --- | --- | --- | --- |
| Cc1cccc(-c2ccc([C@@H]3[C@@H](CO)N4CCCCN(S(=O)(=O)c5ccccc5C)C[C@@H]34)cc2)c1 [compound 297] | −20.26 | 0.25 µM | – |
| NCCCC[C@@H]1NC(=O)/C=C/C(=O)N[C@H](C(N)=O)CCCCNC(=O)[C@@H](Cc2ccc(C(=O)c3ccccc3)cc2)NC(=O)[C@H](CC2CCCCC2)NC1=O [6bK, reference compound] | −24.52 | 0.05 µM | 100% |

Reference: patent publication US11040976B2, “Substrate selective inhibitors of insulin-degrading enzyme (IDE) and uses thereof” (President and Fellows of Harvard College, priority 2015, dated 2021)
